Values quoted from earlier work, collected in patent publication US5939423A, “Treatment of hepatitis B infection with thymosin alpha 1 and famciclovir” (priority 1997, dated 1999).
Ends that are not written are not given here.

How the values were obtained:
[1] = system: herpes simplex
[2] = system: zoster
[3] = system: HBV
[4] = system: duck hepatitis B virus; settings: for maintenance of suppression of HBV DNA and DNA polymerase during treatment: 21 days of treatment; for maintenance of suppression of HBV DNA and DNA polymerase during treatment / DNA polymerase level / HBV DNA level: oral twice a day, penciclovir 20 and 100 mg/kg, famciclovir 5 and 25 mg/kg; for inhibition of duck hepatitis B viral replication: Peking duck; for HBV DNA and DNA polymerase levels after the post-dosing suppression: later than two days after dosing had stopped; for DNA polymerase level / HBV DNA level: within two days of start
[5] = not given; remark: listed apart in the source
[6] = single and repeat doses up to 1000 mg three times daily for six days
[7] = more than 3000 patients
[8] = system: HBV; settings: 10 day course, 250 mg or 500 mg tid
[9] = system: HBV; settings: named patients
[10] = system: HBV; settings: in vivo
[11] = system: HBV; settings: preliminary data; up to 500 mg three times a day for 16 weeks
[12] = system: T cells
[13] = system: normal human lymphocytes
[14] = system: T4 (helper/inducer)cells; settings: by activation of the T4 (helper/inducer) cells
[15] = system: HBV infection; settings: treatment of HBV infection
[16] = system: anti-HBs; settings: previously non-reactive hemodialysis patients
[17] = system: woodchuck hepatitis virus (WHV)
[18] = system: HBV; remark: listed apart in the source
[19] = system: HBV; remark: listed apart in the source
[20] = system: HBV; settings: 1.45 to 1.75 mg (adults) per twice-weekly injection
[21] = in vivo
[22] = system: HBV; remark: listed apart in the source
[23] = 12 patients received TF5 or Tα1, p<0.004 vs placebo, Fisher's exact test
[24] = during the 1 yr study or post study follow up, p<0.11 vs placebo
[25] = n = 49, 1.6 mg s.c. 2×/week, 6 months, p value 0.084 vs placebo
[26] = n = 49, 1.6 mg s.c. 2×/week, 6 months, p value ns

Nc1nc2c(ncn2CCC(CO)CO)c(=O)[nH]1 [penciclovir]
efficacy against herpes simplex virus [1]: proven efficacy | efficacy against zoster virus [2]: proven efficacy | Cmax (penciclovir) (oral penciclovir alone, 5 mg/kg dose): approximately 0.14 microgram/ml | reduction in HBV DNA by 6 day ([3]; 1 microgram/ml, by 6 day): 50% | reduction in HBV DNA by day 9 ([3]; 1 microgram/ml, by day 9): 90% | concentration dependence of HBV DNA reduction ([3]; 2.2.15 hepatoma cells): concentration dependent | inhibition of HBV in human cells ([3]; 2.2.15 hepatoma cells): potent inhibitor | maintenance of suppression of HBV DNA and DNA polymerase during treatment [4]: maintained this suppression during the 21 days | inhibition of duck hepatitis B viral replication [4]: clearly inhibit | suppression of viral replication after dosing had stopped [4]: remained suppressed for at least two days | HBV DNA and DNA polymerase levels after the post-dosing suppression [4]: returned to pre-treatment levels | DNA polymerase level [4]: undetectable | HBV DNA level [4]: undetectable

CC(=O)OCC(CCn1cnc2cnc(N)nc21)COC(C)=O [famciclovir, diacetylester of 6-deoxy penciclovir]
conversion to penciclovir ([5]; removal of one ester group): partly in the intestinal wall | completion of conversion to penciclovir ([5]; removal of remaining ester group, oxidation at the 6-position): completed in the liver | absorption (oral, volunteers): well absorbed | drug-related adverse effects on clinical laboratory values, blood pressure, heart rates or ECG measurements [6]: no evidence of drug-related adverse effects | most common adverse experiences [7]: headache, nausea and diarrhea | maintenance of suppression of HBV DNA and DNA polymerase during treatment [4]: maintained this suppression during the 21 days | inhibition of duck hepatitis B viral replication [4]: clearly inhibit | suppression of viral replication after dosing had stopped [4]: remained suppressed for at least two days | HBV DNA and DNA polymerase levels after the post-dosing suppression [4]: returned to pre-treatment levels | DNA polymerase level [4]: undetectable | HBV DNA level [4]: undetectable | fall in HBV DNA levels ([8]; in 6 of 11 evaluable patients): greater than 90% | evaluable patients with greater than 90% fall in HBV DNA levels ([8]; of 11 evaluable patients): 6 | efficacy in patients with HBV reinfection following liver transplantation [9]: shown efficacy | safety profile [10]: good safety profile | suppressing HBV replication [10]: effective in suppressing HBV replication | reduction in HBV DNA and ALT levels [11]: significant reduction

Tα1: 28 amino acid peptide with a molecular weight of 3108, initially isolated from Thymus Fraction 5, sequenced and chemically synthesized (SDAAVDTSSEITTKDLKEKKEVVEEAEN; ends and bridges not checked; UniProt P06454 2-29, looked up)
modulating the maturation of T cells [12]: activity similar to TF5 | lymphocyte IL2 receptor expression [13]: increase | interferon-alpha, interferon-gamma, and IL2 and IL3 production ([13]; normal human lymphocytes): promote | allogenic and autologous human mixed lymphocyte reactions [14]: enhances | immune responsiveness [15]: enhances immune responsiveness | specific lymphocyte parameters [15]: augments specific lymphocyte parameters to significantly higher levels | in vivo production of anti-HBs following Heptavax-B vaccination [16]: enhance | change of WHV DNA replication intermediates from pretreatment levels ([17]; liver biopsy, the other 2 animals, end of treatment): only a small change | treated animals with undetectable WHV DNA levels ([17]; of 6 animals, 10 μg/Kg s.c. twice weekly, 28 weeks): 4 | depression of WHV DNA levels ([17]; remaining 2 animals, 10 μg/Kg s.c. twice weekly, 28 weeks): 100 fold | number of patients who cleared serum HBV DNA [18, 23]: Nine | patients who cleared serum HBV DNA [18, 23]: 75% | peripheral blood lymphocyte, CD3 and CD4 counts, and in vitro production of interferon-gamma ([18]; associated with response, over initial values): significant improvements | responders with sustained remission with normal ALT levels and negative serum HBV DNA (using PCR) and HBeAg ([18]; of the responders): About 78% | side effects ([18]; twice weekly for six months): No side effects were observed | serum aminotransferase levels ([18]; twice weekly for six months, conclusion of the study (1 year)): improved significantly | sustained loss of HBV DNA with negative HBeAg [19, 24]: 25% | sustained loss of HBV DNA with negative HBeAg, number of patients [19, 24]: 12 | CR (%) (complete response) [19, 25]: 14% | CR (complete response), number of patients [19, 25]: 7 | DR (%) (delayed response) [19, 26]: 10% | DR (delayed response), number of patients [19, 26]: 5 | IR (%) (incomplete response) [19, 26]: 0% | IR (incomplete response), number of patients [19, 26]: 0 | safety and effectiveness in clearing HBV DNA from the blood [20]: safe and effective | local or systemic side effects [21]: no local or systemic side effects have been observed

interferon-alpha
clear HBeAg ([22]; Asian patients): 15-20% | sustained clearance of hepatitis B e antigen (HBeAg) ([22]; North America and European patients): 30-40% | clear HBsAg ([22]; of the Asian patients who clear HBeAg): approximately 10% | ultimately cleared hepatitis B surface antigen (HBsAg) ([22]; of the North America and European patients with HBeAg clearance): 25-65%

Nc1ccn([C@@H]2CS[C@H](CO)O2)c(=O)n1 [lamivudine]
safety profile [10]: good safety profile | suppressing HBV replication [10]: effective in suppressing HBV replication
